Test results taken from patent US20250302983A1, “Saponin Conjugates” (priority 2018, published 2025).

Tests used:
HeLa cells = assay: HeLa cell viability assay (MTS): SO1861 + dianthin-EGF with PAMAM, PAMAM-conjugates, G4-dendron or chloroquine; assay type: cell-based, human; conditions: positive control
Description: Whether or not a first proteinaceous molecule comprising saponins, either or not further comprising one or more (cleavable) linkers and/or optionally a scaffold, is able to disturb the acidic environment and […] the endosomal escape function of the at least one glycoside (saponin) can be easily determined with an assay as described in Example 3 and as known in the art. The inhibition is described as “fold amount increases of glycoside necessary to induced 50% cell killing”. […] The fold increase is to be measured in assay, essentially as described in Example 4, wherein Chloroquine, as a positive control, induces a 2-fold increase in glycoside amount, preferably saponin amount wherein the saponin is any one or more of the saponins of the invention (see Table A1, Scheme I, previous embodiments) to observe 50% cell killing.
HeLa cells were seeded in DMEM (PAN-Biotech GmbH) supplemented with 10% fetal bovine serum (PAN-Biotech GmbH) and 1% penicillin/streptomycin (PAN-Biotech GmbH), in a 96 well plate at 5,000 c/w in 100 μL/well and incubated overnight at 37° C. and 5% CO2. The next day 20× concentrated stocks of the PAMAM, PAMAM-conjugates, G4-dendron (prepared in Example 3) or chloroquine (Sigma Aldrich) samples were prepared in DMEM. […]

[1] = test system: SK-BR-3, JIMT-1, MDA-MB-468, A431, CaSki, HeLa, A2058; assay: control treatments, relative cell viability on various cancer cell lines (FIG. 12); assay type: cell-based, human; conditions: wide range of concentrations toxin tested, up to 100.000 pM

Compound | fold increase in glycoside (saponin) amount to observe 50% cell killing (HeLa cells) | influence on cell viability [1]
CCN(CC)CCCC(C)Nc1ccnc2cc(Cl)ccc12 (centres unmarked) [Chloroquine] | 2 fold | –
saporin | – | do not or hardly have any influence on cell viability
